Tests used:
Type in all cases: in vivo
Plasmopara viticola [1] = experiment: D-1a) residual-protective action against Plasmopara viticola on vines; conditions: Plasmopara viticola, 144 h; 200 ppm; test D-1a) residual-protective; vine seedlings; evaluated after 6 days; read-out: inhibit fungal infestations
Description: (§1) D-1: Action Against Plasmopara viticola on Vines
(§2) a) Residual-protective Action
Vine seedlings are sprayed at the 4- to 5-leaf stage with a spray mixture (0.02% active ingredient) prepared from a wettable powder formulation of the test compound. After 24 hours, the treated plants are infected with a sporangia suspension of the fungus. Fungus infestation is evaluated after incubation for 6 days at 95-100% relative humidity and +20° C.

Phytophthora [2] = experiment: D-2a) residual-protective action against Phytophthora on tomato plants; conditions: Phytophthora, 120 h; 200 ppm; test D-2a) residual-protective, evaluated after 5 days, read-out: inhibit fungal infestations
Description: (§3) D-2: Action Against Phytophthora on Tomato Plants
as §2
After a cultivation period of 3 weeks, tomato plants are sprayed with a spray mixture (0.02% active ingredient) prepared from a wettable powder formulation of the test compound. After 48 hours, the treated plants are infected with a sporangia suspension of the fungus. Fungus infestation is evaluated after incubation of the infected plants for 5 days at 90-100% relative humidity and +20° C.

Plasmopara viticola [3] = experiment: D-1b) residual-curative action against Plasmopara viticola on vines; conditions: Plasmopara viticola, 144 h; 200 ppm; test D-1b) residual-curative; vine seedlings; evaluated 6 days after infection; read-out: inhibit fungal infestations
Description: as §1
b) Residual-curative Action
Vine seedlings are infected at the 4- to 5-leaf stage with a sporangia suspension of the fungus. After incubation for 24 hours in a humidity chamber at 95-100% relative humidity and +20° C., the infected plants are dried and sprayed with a spray mixture (0.02% active ingredient) prepared from a wettable powder formulation of the test compound. After the spray coating has dried, the treated plants are placed in the humidity chamber again.
Fungus infestation is evaluated 6 days after infection.

Phytophthora [4] = experiment: D-3a) residual-protective action against Phytophthora on potato plants; conditions: Phytophthora, 96 h; 200 ppm; test D-3a) residual-protective; potato plants (Bintje); evaluated after 4 days; read-out: inhibit fungal infestations
Description: (§4) D-3: Action Against Phytophthora on Potato Plants
as §2
2-3 week old potato plants (Bintje variety) are sprayed with a spray mixture (0.02% active ingredient) prepared from a wettable powder formulation of the test compound. After 48 hours, the treated plants are infected with a sporangia suspension of the fungus. Fungus infestation is evaluated after incubation of the infected plants for 4 days at 90-100% relative humidity and +20° C.

Phytophthora [5] = experiment: D-2b) systemic action against Phytophthora on tomato plants; conditions: Phytophthora, 96 h; 200 ppm; test D-2b) systemic (soil watering), evaluated after 4 days, read-out: inhibit fungal infestations
Description: as §3
After a cultivation period of 3 weeks, tomato plants are watered with a spray mixture (0.02% active ingredient based on the volume of the soil) prepared from a wettable powder formulation of the test compound. […] After 96 hours, the treated plants are infected with a sporangia suspension of the fungus. Fungus infestation is evaluated after incubation of the infected plants for 4 days at 90-100% relative humidity and +20° C. […] Compounds E1.003, E1.004, E1.009, E1.011, E1.012, E1.014, E1.018, E1.019, E1.020, E1.021, E1.022, E1.023, E1.025, E1.031, E1.032, E1.033, E1.038, E1.040, E1.044, E1.045, E1.049, E1.050, E1.053, E1.055, E1.057, E1.064, E1.085, E1.089, E1.090, E1.091, E1.102, E1.08, E1.110, E1.112, E1.121, E1.125, E1.129, E1.139 and E1.141 at 200 ppm inhibit fungal infestations in both tests D-2a) and D-2b) by 80-100%.

Phytophthora [6] = experiment: D-3b) systemic action against Phytophthora on potato plants; conditions: Phytophthora, 96 h; 200 ppm; test D-3b) systemic (soil watering); potato plants (Bintje); evaluated after 4 days; read-out: inhibit fungal infestations
Description: as §4
2-3 week old potato plants (Bintje variety) are watered with a spray mixture (0.02% active ingredient based on the volume of the soil) prepared from a wettable powder formulation of the test compound. […] After 48 hours, the treated plants are infected with a sporangia suspension of the fungus. Fungus infestation is evaluated after incubation of the infected plants for 4 days at 90-100% relative humidity and +20° C. Fungal infestation is effectively controlled with compounds of Tables 1 to 35. Compounds E1.003, E1.004, E1.009, E1.011, E1.012, E1.019, E1.020, E1.021, E1.022, E1.025, E1.031, E1.032, E1.033, E1.038, E1.045, E1.049, E1.050, E1.053, E1.085, E1.089, E1.090, E1.091, E1.102, E1.110, E1.112, E1.121, E1.125, E1.129 at 200 ppm inhibit fungal infestations in both tests D-3a) and D-3b) by 80-100%.

Measured: inhibition at 200 ppm

C#CCOc1ccc(CCNC(=O)C(OC)c2ccc(Cl)cc2)cc1OC (stereo not drawn) [Compound E1.003, 2-(4-Chloro-phenyl)-2-methoxy-N-[2-(3-methoxy-4-prop-2-ynyloxy-phenyl)-ethyl]-acetamide]
80 to 100%: all assays above

C#CCOc1ccc(CCNC(=O)C(OCC)c2ccc(Cl)cc2)cc1OC (stereo not drawn) [Compound E1.004, 2-(4-chloro-phenyl)-2-ethoxy-N-[2-(3-methoxy-4-prop-2-ynyloxy-phenyl)-ethyl]-acetamide]
80 to 100%: all assays above

C#CCOc1ccc(CCNC(=O)C(OCC=C)c2ccc(Cl)cc2)cc1OC (stereo not drawn) [Compound E1.009, 2-allyloxy-2-(4-chloro-phenyl)-N-[2-(3-methoxy-4-prop-2-ynyloxy-phenyl)-ethyl]-acetamide]
80 to 100%: all assays above

C#CCOc1ccc(CCNC(=O)C(OCC#C)c2ccc(Cl)cc2)cc1OC (stereo not drawn) [Compound E1.011, 2-(4-chloro-phenyl)-N-[2-(3-methoxy-4-prop-2-ynyloxy-phenyl)-ethyl]-2-prop-2-ynyloxy-acetamide]
80 to 100%: all assays above

C#CCOC(C(=O)NCCc1ccc(OCC#CCC)c(OC)c1)c1ccc(Cl)cc1 (stereo not drawn) [Compound E1.012, 2-(4-chloro-phenyl)-N-[2-(3-methoxy-4-pent-2-ynyloxy-phenyl)-ethyl]-2-prop-2-ynyloxy-acetamide]
80 to 100%: all assays above

C#CCOc1ccc(CCNC(=O)C(OCC#CC)c2ccc(Cl)cc2)cc1OC (stereo not drawn) [Compound E1.014, 2-but-2-ynyloxy-2-(4-chloro-phenyl)-N-[2-(3-methoxy-4-prop-2-ynyloxy-phenyl)-ethyl]-acetamide]
80 to 100%: Plasmopara viticola [1] | Phytophthora [2] | Plasmopara viticola [3] | Phytophthora [5]

C#CCOc1ccc(CCNC(=O)C(OCOCC)c2ccc(Cl)cc2)cc1OC (stereo not drawn) [Compound E1.018, 2-(4-chloro-phenyl)-2-ethoxymethoxy-N-[2-(3-methoxy-4-prop-2-ynyloxy-phenyl)-ethyl]-acetamide]
80 to 100%: Plasmopara viticola [1] | Phytophthora [2] | Plasmopara viticola [3] | Phytophthora [5]

C#CCOc1ccc(CCNC(=O)C(OC)c2ccc(Br)cc2)cc1OC (stereo not drawn) [Compound E1.019, 2-(4-bromo-phenyl)-2-methoxy-N-[2-(3-methoxy-4-prop-2-ynyloxy-phenyl)-ethyl]-acetamide]
80 to 100%: all assays above

C#CCOc1ccc(CCNC(=O)C(OCC)c2ccc(Br)cc2)cc1OC (stereo not drawn) [Compound E1.020, 2-(4-bromo-phenyl)-2-ethoxy-N-[2-(3-methoxy-4-prop-2-ynyloxy-phenyl)-ethyl]-acetamide]
80 to 100%: all assays above

C#CCOc1ccc(CCNC(=O)C(OCC=C)c2ccc(Br)cc2)cc1OC (stereo not drawn) [Compound E1.021, 2-allyloxy-2-(4-bromo-phenyl)-N-[2-(3-methoxy-4-prop-2-ynyloxy-phenyl)-ethyl]-acetamide]
80 to 100%: all assays above

C#CCOC(C(=O)NCCc1ccc(OCC#CCC)c(OC)c1)c1ccc(Br)cc1 (stereo not drawn) [Compound E1.023, 2-(4-bromo-phenyl)-N-[2-(3-methoxy-4-pent-2-ynyloxy-phenyl)-ethyl]2-prop-2-ynyloxy-acetamide]
80 to 100%: Plasmopara viticola [1] | Phytophthora [2] | Plasmopara viticola [3] | Phytophthora [5]

C#CCOc1ccc(CCNC(=O)C(OCC#CC)c2ccc(Br)cc2)cc1OC (stereo not drawn) [Compound E1.025, 2-(4-bromo-phenyl)-2-but-2-ynyloxy-N-[2-(3-methoxy-4-prop-2-ynyloxy-phenyl)-ethyl]-acetamide]
80 to 100%: all assays above

C#CCOc1ccc(CCNC(=O)C(OCC#C)c2ccc(F)cc2)cc1OC (stereo not drawn) [Compound E1.033, 2-(4-fluoro-phenyl)-N-[2-(3-methoxy-4-prop-2-ynyloxy-phenyl)-ethyl]-2-prop-2-ynyloxy-acetamide]
80 to 100%: all assays above

C#CCOc1ccc(CCNC(=O)C(OCC#C)c2ccc(C(F)(F)F)cc2)cc1OC (stereo not drawn) [Compound E1.050, N-[2-(3-methoxy-4-prop-2-ynyloxy-phenyl)-ethyl]-2-prop-2-ynyloxy-2-(4-trifluoromethyl-phenyl)-acetamide]
80 to 100%: all assays above
